The values that follow come from patent US12226380B2, “Method of regulating immunity in the intestines” (Monell Chemical Senses Center, priority 2016, dated 2025).

Assay [1] has as its system N. brasiliensis or Helgomosomoides polygyrus. Particulars: mice with free access to 100 mM succinate, infected with intestinal parasites, up to two weeks post-infection; anticipated. As to the method:
For treatment of parasitic infection, mice are provided with free access to a drinking sprout containing 100 mM succinate (or other SucnR1 agonist) or plain water. Mice are then infected with intestinal parasites, such as N. brasiliensis or Helgomosomoides polygyrus. Mice are examined for the presence of worm (worm burden) in the small intestine, caecum, as well as feces for up to two weeks post-infection.
Similarly, the feces is examined for the presence of parasitic eggs.

Assay [2] has as its system DSS-induced colitis. Particulars: DSS-treated mice, 100 mM succinate in drinking water vs plain water; anticipated. As to the method:
Mice are treated with DSS to induce intestinal damage. Mice are then provided with a drinking sprout containing 100 mM succinate or plain water. Gut tissue is collected and evaluated for the clinical and histological changes.

For `O=C(O)CCC(=O)O` [succinate], the “expelling of helminths (worm burden)” value in assay [1] is reported as “expedited expelling of helminths from the body”. Also, the “clinical outcome (clinical and histological changes of gut tissue)” value in assay [2] is given as “better clinical outcome”.
